Results as given in the CheMixHub viscosity set.
± gives the uncertainty stated by the source.

Assay: xn = mol fraction of the nth substance listed

Cc1ccc(S(=O)(=O)[O-])cc1.[Na+] + O
viscosity [mPa·s], 101 kPa
Conditions	x1 = 9e-05	x1 = 0.00018	x1 = 0.0009	x1 = 0.0018	x1 = 0.00448	x1 = 0.00893	x1 = 0.0133	x1 = 0.0177
298.15 K	0.899 ± 0.009	0.9 ± 0.009	0.916 ± 0.009	0.941 ± 0.01	1.002 ± 0.01	1.113 ± 0.011	1.235 ± 0.013	1.368 ± 0.014
318.15 K	0.598 ± 0.006	0.599 ± 0.006	0.609 ± 0.006	0.626 ± 0.006	0.661 ± 0.006	0.728 ± 0.007	0.799 ± 0.008	0.879 ± 0.008

NCCO.O=CO + O
viscosity [mPa·s], 101 kPa
Conditions	x1 = 0.0088	x1 = 0.0186	x2 = 0.8561	x2 = 0.8993	x2 = 0.9327	x2 = 0.9591	x2 = 0.9712
293.15 K	1.23 ± 0.059	1.29 ± 0.063	3.936 ± 0.18	2.814 ± 0.14	2.172 ± 0.11	1.842 ± 0.081	1.482 ± 0.074
298.15 K	1.08 ± 0.051	1.17 ± 0.055	3.51 ± 0.17	2.52 ± 0.12	1.914 ± 0.091	1.614 ± 0.081	1.35 ± 0.064
303.15 K	0.99 ± 0.045	1.05 ± 0.047	3.12 ± 0.15	2.28 ± 0.1	1.716 ± 0.078	1.386 ± 0.074	1.23 ± 0.059

O=C([O-])CC(O)(CC(=O)[O-])C(=O)[O-].[Na+].[Na+].[Na+] + O
viscosity [mPa·s]
Conditions	293.15 K	298.15 K	303.15 K
101 kPa, x1 = 0.0013	–	0.94 ± 0.008	–
101 kPa, x1 = 0.0025	–	1.033 ± 0.009	–
101 kPa, x1 = 0.0052	–	1.126 ± 0.01	–
101 kPa, x1 = 0.0067	–	1.21 ± 0.01	–
101 kPa, x1 = 0.0146	–	1.805 ± 0.016	–
101 kPa, x1 = 0.0243	–	3.067 ± 0.028	–
101 kPa, x1 = 0.0364	–	5.952 ± 0.056	–
101 kPa, x1 = 0.0518	–	9.7 ± 0.096	–
101.33 kPa, x1 = 0.002	1.087 ± 0.083	0.959 ± 0.07	0.859 ± 0.064
101.33 kPa, x1 = 0.0054	1.327 ± 0.097	1.168 ± 0.084	1.043 ± 0.074
101.33 kPa, x1 = 0.0093	1.67 ± 0.12	1.466 ± 0.1	1.305 ± 0.091
101.33 kPa, x1 = 0.0126	2.033 ± 0.15	1.78 ± 0.13	1.58 ± 0.11
101.33 kPa, x1 = 0.0165	2.569 ± 0.18	2.242 ± 0.16	1.984 ± 0.14
101.33 kPa, x1 = 0.0196	3.097 ± 0.23	2.696 ± 0.2	2.379 ± 0.17
101.33 kPa, x1 = 0.0232	3.855 ± 0.28	3.346 ± 0.24	2.944 ± 0.21
101.33 kPa, x1 = 0.0269	4.836 ± 0.35	4.185 ± 0.3	3.67 ± 0.26
101.33 kPa, x1 = 0.0297	5.748 ± 0.44	4.963 ± 0.38	4.341 ± 0.33
101.33 kPa, x1 = 0.0335	7.277 ± 0.54	6.263 ± 0.46	5.46 ± 0.39
101.33 kPa, x1 = 0.0366	8.834 ± 0.62	7.583 ± 0.55	6.593 ± 0.45

O=P([O-])([O-])[O-].[Na+].[Na+].[Na+] + O
viscosity [mPa·s], 101 kPa
Conditions	x1 = 0.0018	x1 = 0.0054	x1 = 0.0089	x1 = 0.012	x1 = 0.016
298.15 K	0.9742 ± 0.0087	1.167 ± 0.011	1.458 ± 0.013	1.859 ± 0.016	2.317 ± 0.019
303.15 K	0.8777 ± 0.0082	1.054 ± 0.0096	1.31 ± 0.012	1.67 ± 0.015	2.131 ± 0.018
308.15 K	0.7769 ± 0.0076	0.9282 ± 0.0086	1.146 ± 0.011	1.444 ± 0.013	1.868 ± 0.018

O=[N+]([O-])[O-].O=[N+]([O-])[O-].[Sr+2] + O
viscosity [mPa·s], 100 kPa
Conditions	x1 = 0.004	x1 = 0.009	x1 = 0.02	x1 = 0.04	x1 = 0.05
298.15 K	0.9435 ± 0.037	1.029 ± 0.041	1.226 ± 0.048	1.628 ± 0.064	2.52 ± 0.099
323.15 K	0.589 ± 0.023	0.639 ± 0.025	0.775 ± 0.031	1.012 ± 0.04	1.524 ± 0.06
